Data on 17 compounds can be found in PubChem BioAssay (NCI).

Test systems include DLD-1 colon; DMS 273 small cell lung; 786-0 renal; SNB-78 CNS; DMS 114 small cell lung; KM20L2 colon; HOP-18 NSCLC; LXFL 529 NSCLC; XF 498 CNS; RXF-631 renal; MCF7 breast; MDA-MB-231 breast; DU-145 prostate; MDA-MB-435; HS 578T breast.
Assay in all cases: NCI anticancer screen, dose series, 48 h

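The compound was tested at five concentrations on cells cultured in 96-well plates, with a 48-hour exposure period. Abbreviation: GI50, concentration required for 50% inhibition of growth. The concentration for full growth arrest is given as TGI.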

Regarding `CCCC(N)C(=O)c1ccccc1` (stereo unspecified), the TGI in the experiment on DLD-1 colon, in the experiment on DMS 273 small cell lung, in the experiment with 786-0 renal, in the experiment on SNB-78 CNS, with DMS 114 small cell lung and with KM20L2 colon was more than 100 µM in each case. Also, the TGI in the experiment with HOP-18 NSCLC, with LXFL 529 NSCLC and in the experiment with XF 498 CNS was more than 100 µM in each case.

With `CCOc1ccc(/C(C=O)=C(\Cl)c2ccc(OC)c(OC)c2)cc1`, the TGI in the experiment with DLD-1 colon, in the experiment on DMS 273 small cell lung, in the experiment on SNB-78 CNS, in the experiment with DMS 114 small cell lung, in the experiment with KM20L2 colon and in the experiment on HOP-18 NSCLC was more than 100 µM in each case. Besides, the figures for the TGI with LXFL 529 NSCLC, in the experiment with RXF-631 renal and with XF 498 CNS were more than 100 µM, more than 100 µM and 79.2 µM, respectively.

As for `O=C(O)C1CCC(=O)N1S(=O)(=O)c1ccccc1` (stereo unspecified), the TGI in the experiment on DLD-1 colon, in the experiment with DMS 273 small cell lung, in the experiment with SNB-78 CNS, in the experiment on MCF7 breast, with DMS 114 small cell lung and in the experiment with KM20L2 colon was more than 100 µM throughout. The TGI in the experiment with HOP-18 NSCLC and in the experiment on XF 498 CNS was more than 100 µM throughout.

As to `C=C1C(=O)O[C@@H]2[C@H]1CCC(C)=C1C=CC(=O)[C@]12C`, the TGI is 32.8 µM in the experiment on DLD-1 colon; 41.1 µM with DMS 273 small cell lung; 18.9 µM in the experiment with SNB-78 CNS; 29.8 µM in the experiment on DMS 114 small cell lung; 29.7 µM in the experiment with HOP-18 NSCLC; 26.7 µM in the experiment with LXFL 529 NSCLC. In the experiment with RXF-631 renal, the TGI turned out to be 23.6 µM.

For `CC(=O)C=NCC(=O)O`, the TGI in the experiment on 786-0 renal, in the experiment with MCF7 breast, with MDA-MB-231 breast, in the experiment with DU-145 prostate, in the experiment on MDA-MB-435 and with HS 578T breast was more than 100 µM each time.

As to `c1ccc(N=c2nc(N3CCOCC3)ss2)cc1`, the TGI with DLD-1 colon came to 28.3 µM; in the experiment on DMS 273 small cell lung, 31.4 µM; with 786-0 renal, 30.1 µM; in the experiment on SNB-78 CNS, 51.3 µM; with DMS 114 small cell lung, 30.2 µM; in the experiment on KM20L2 colon it was 31.4 µM. The TGI in the experiment with HOP-18 NSCLC was more than 100 µM; with LXFL 529 NSCLC, 24.6 µM; in the experiment on RXF-631 renal, 31.7 µM; in the experiment with XF 498 CNS, 32.1 µM.

`N#CC(Nc1cccc(C(F)(F)F)c1)c1ccccc1C(F)(F)F` (stereo unspecified): the TGI was 29.5 µM in the experiment on DLD-1 colon; 21.1 µM with DMS 273 small cell lung; 43 µM with SNB-78 CNS; 23.8 µM in the experiment on DMS 114 small cell lung; 28.4 µM in the experiment on KM20L2 colon; 26.4 µM in the experiment on HOP-18 NSCLC. Moreover, the TGI in the experiment on LXFL 529 NSCLC came out at 15.7 µM; in the experiment with XF 498 CNS, 12.9 µM.

As to `COc1ccc(-c2nn(-c3cccc(NC(=O)Nc4ccccc4)c3)cc2-c2ccncc2)cc1Cl`, the GI50 with MCF7 breast was 2.07 µM; in the experiment with MDA-MB-231 breast it was 2.53 µM; with DU-145 prostate, 2.47 µM; with MDA-MB-435 it was 2.03 µM; in the experiment with HS 578T breast, 2.46 µM. For the same compound, the TGI amounted to 4.91 µM in the experiment on MCF7 breast; 8.01 µM in the experiment with MDA-MB-231 breast; 5.87 µM in the experiment with DU-145 prostate; 5.25 µM in the experiment with MDA-MB-435; 7.94 µM with HS 578T breast.

`NC1(C(=O)O)CCc2ccc(N(CCCl)CCCl)cc2C1` (stereo unspecified): the TGI with DLD-1 colon, in the experiment on DMS 273 small cell lung, with MCF7 breast, in the experiment with DMS 114 small cell lung, with KM20L2 colon and in the experiment on HOP-18 NSCLC was more than 100 µM throughout. The same compound gave a TGI in the experiment with XF 498 CNS of more than 100 µM.

In the case of `CCC(=O)NC(Nc1cccc(F)c1)(C(F)(F)F)C(F)(F)F`, the TGI in the experiment on MCF7 breast, in the experiment on MDA-MB-231 breast, in the experiment with DU-145 prostate, in the experiment on MDA-MB-435 and in the experiment with HS 578T breast was more than 100 µM each time.

`Cc1cc2c(C(C)C)c(O)c(O)c(C=NCCO)c2c(O)c1-c1c(C)cc2c(C(C)C)c(O)c(O)c(C=NCCO)c2c1O`: the TGI in the experiment on DLD-1 colon turned out to be 11.7 µM; in the experiment on DMS 273 small cell lung, 3.16 µM; in the experiment with 786-0 renal, 4.83 µM; with SNB-78 CNS it was 34.1 µM; in the experiment with DMS 114 small cell lung, 2.7 µM; in the experiment with HOP-18 NSCLC, 5.37 µM. Further, the values for the TGI in the experiment on LXFL 529 NSCLC, in the experiment on RXF-631 renal and in the experiment on XF 498 CNS were 3.05 µM, 5.35 µM and 8.43 µM, respectively.

For `O=C(Nc1ccc(Sc2ccc(N=Nc3c(O)c(S(=O)(=O)O)cc4cc(S(=O)(=O)O)ccc34)cc2)cc1)c1ccc(N=Nc2c(O)ccc3c(S(=O)(=O)O)cc(S(=O)(=O)O)cc23)cc1`, the TGI with DLD-1 colon, in the experiment with DMS 273 small cell lung, with 786-0 renal, in the experiment with SNB-78 CNS, in the experiment on KM20L2 colon and in the experiment on HOP-18 NSCLC was more than 100 µM each time. For the same compound, the TGI in the experiment with LXFL 529 NSCLC was more than 100 µM; in the experiment with RXF-631 renal, more than 100 µM; in the experiment with XF 498 CNS, 91.7 µM.

For `CN1C[C@H]2[C@@H](C1=O)[C@H](c1ccccc1)ON2C`, the TGI in the experiment on MCF7 breast, in the experiment on MDA-MB-231 breast, in the experiment on DU-145 prostate, with MDA-MB-435 and with HS 578T breast was more than 100 µM each time.

With `CC(=O)O[C@H]1C=CC(=O)C(C)CC1C` (stereo partly specified), the TGI with DLD-1 colon, in the experiment with DMS 273 small cell lung, in the experiment with SNB-78 CNS, with DMS 114 small cell lung, in the experiment on KM20L2 colon and with LXFL 529 NSCLC was more than 100 µM in each case. In addition, the TGI in the experiment with RXF-631 renal and in the experiment on XF 498 CNS was more than 100 µM throughout.

For the compound `Clc1ccc(CNc2nc(Cl)c3[nH]cnc3n2)cc1Cl`, the TGI in the experiment on 786-0 renal is more than 100 µM; with MCF7 breast, 84.5 µM; in the experiment with MDA-MB-231 breast it was more than 100 µM; with DU-145 prostate, more than 100 µM; in the experiment with MDA-MB-435 it was more than 100 µM; in the experiment with HS 578T breast it was 50.8 µM.

Turning to `O=C(Nc1c(C(=O)NC2CCCCC2)[nH]c(=O)[nH]c1=O)c1ccc(Cl)cc1`, the TGI in the experiment on DLD-1 colon, in the experiment with DMS 114 small cell lung, in the experiment with HOP-18 NSCLC, in the experiment on LXFL 529 NSCLC and in the experiment with XF 498 CNS was more than 100 µM throughout.

On to `Fc1ccc(-c2nn3c(-c4cc(C(F)(F)F)cc(C(F)(F)F)c4)nnc3s2)cc1`, for which the GI50 was more than 50 µM in the experiment on MCF7 breast; 1.79 µM with MDA-MB-231 breast; more than 50 µM in the experiment with DU-145 prostate; more than 50 µM in the experiment on MDA-MB-435; 1.76 µM with HS 578T breast. The TGI in the experiment with MCF7 breast, in the experiment with MDA-MB-231 breast, with DU-145 prostate, in the experiment on MDA-MB-435 and in the experiment with HS 578T breast was more than 50 µM throughout.
